Experimental data reported in patent US20080166805A1, “Culturing human cells and tissues in an N-glycolylneuraminic acid-free environment” (The Regents of the University of California, priority 2005, published 2008).

Tests used:
[1] = system: normal human skin fibroblasts (WT); experiment: Neu5Gc/ManNGc feeding experiment, normal human skin fibroblasts; type: cell-based; details: normal wild-type (WT) fibroblasts fed 3 mM for 3 days
Method: Cell Culture—Caco-2 cells were propagated in alpha-MEM containing GLUTAMAX™ (Invitrogen, San Diego, Calif.) and a mixture of ribonucleosides and deoxyribonucleosides (Gibco/Invitrogen, San Diego, Calif.) supplemented with 20% FCS. All the fibroblast cell lines and CHO-K1 cells were cultured in the same media supplemented respectively with 15% non-heat inactivated FCS or 10% heat inactivated FCS. Chimpanzee Fred and human […] EBV-transformed lymphoblasts were cultured in RPMI-1640 (Gibco/Invitrogen, San Diego, Calif.) supplemented with 10% heat inactivated FCS or 15% human serum. All of the cultures were maintained at 37° C., 5% CO2 atmosphere. In order to deplete any remaining Neu5Gc from FCS, the cells were split and cultured prior to Neu5Gc feeding experiments for at least 4 days in alpha-MEM supplemented with an adequate percentage of heat-inactivated premium human serum instead of FCS. The cells were then maintained under the same conditions during the whole feeding experiment. The human serum was heat inactivated at 56° C. for 30 min. before use.
Neu5Gc and ManNGc Feeding Experiment—Neu5Ac, Neu5Gc or ManNGc were dried, dissolved in the appropriate media supplemented with heat-inactivated human serum, sterilized using a Spin-X® (Corning Inc., Corning, N.Y.) and then added to the cells. The pH of the media containing Sia was adjusted to neutrality using sterilized 1M NaOH before starting the feeding experiment. Cells were cultured in the presence of up to 3 mM free Sia or ManNGc for 1 or 3 days at 37° C. At the end of the feeding, cells were washed with cold PBS, harvested either by scraping or with 2 mM EDTA for fibroblasts, and washed again with cold PBS prior to fractionation.
Fractionation of the Labeled Cells—Washed cell pellets were sonicated into 500 μL of 20 mM sodium phosphate buffer or 20 mM Tris-HCl, pH 7.5, using 4×15 second pulses of a sonicator cell disrupter, model Some Dismembrator (Fisher Scientific, Hampton, N.J.) at a probe setting of 3. The sonicate was centrifuged at 75×g for 15 min., and the pellet obtained consisted primarily of nuclei and unbroken cells. The pellet contained <5% of the incorporated sialic acid as determined using a radioactive tracer (data not shown.) The supernatant was therefore considered as the “total homogenate” fraction. A portion (20%) of the “total homogenate” fraction was taken for protein quantification and Sia analysis by DMB derivatization and HPLC analysis (as discussed below.) The remainder was centrifuged at 100,000×g for 1 h. The resulting pellet, called the “membrane” fraction, was then resuspended by sonication (15 sec.) in 200 μl of sodium acetate buffer, pH 5.5. The 100,000×g supernatant, called the “soluble” fraction was adjusted to 90% ethanol using absolute ice-cold ethanol, and placed overnight at −20° C. The flocculant precipitate, which represents the “soluble protein” fraction, was washed 3 times with 90% ice-cold ethanol and then resuspended in 200 μl of water. […] All the Sias in these fractions were released with mild acid hydrolysis if necessary and then analyzed by HPLC after DMB derivatization. Protein quantification was performed on the total homogenate, membrane and soluble protein fractions by using the BCA protein assay kit from Pierce (Rockford, Ill.) In some experiments, the resulting data obtained for the Sia bound to the membrane fraction and to the soluble proteins were pooled and presented here as a High Molecular Weight (HMW) fraction. […]

[2] = system: lysosomal sialic acid transporter mutant human fibroblasts (GM05520); experiment: Neu5Gc/ManNGc feeding, lysosomal sialic acid transporter mutant fibroblasts GM05520; type: cell-based; details: GM05520 (ISSD) fibroblasts fed 3 mM for 3 days
Text: (§1) Cell Lines—Caco-2 cells (human epithelial cells isolated from a primary colon carcinoma), normal human skin fibroblasts (CCD-919-SK) and chinese hamster ovary (CHO-K1) cells were purchased from ATCC (Manassas, Va.) Mutant human skin fibroblasts (GM05520, GM08496 and GM01718) were obtained from the Coriell Institute for Medical Research (Camden, N.J.) Chimpanzee Fred and human […] EBV-transformed lymphoblasts were a gift from Dr. Peter Parham, Stanford University, CA. […]
(§2) Fractionation of the Labeled Cells—Washed cell pellets were sonicated into 500 μL of 20 mM sodium phosphate buffer or 20 mM Tris-HCl, pH 7.5, using 4×15 second pulses of a sonicator cell disrupter, model Some Dismembrator (Fisher Scientific, Hampton, N.J.) at a probe setting of 3. […] The pellet contained <5% of the incorporated sialic acid as determined using a radioactive tracer (data not shown.) The supernatant was therefore considered as the “total homogenate” fraction. A portion (20%) of the “total homogenate” fraction was taken for protein quantification and Sia analysis by DMB derivatization and HPLC analysis (as discussed below.) The remainder was centrifuged at 100,000×g for 1 h. […] All the Sias in these fractions were released with mild acid hydrolysis if necessary and then analyzed by HPLC after DMB derivatization. […]

[3] = system: lysosomal sialic acid transporter mutant human fibroblasts (GM08496); experiment: Neu5Gc/ManNGc feeding, lysosomal sialic acid transporter mutant fibroblasts GM08496; type: cell-based; details: GM08496 (Salla disease) fibroblasts fed 3 mM for 3 days
Text: as §1, §2

Caco-2 cells = experiment: Endocytosis inhibition experiments (Neu5Gc uptake in Caco-2 cells); type: cell-based, human; details: 2 h pre-treatment with drug, then 3 mM Neu5Gc
Method: The sonicate was centrifuged at 75×g for 15 min., and the pellet obtained consisted primarily of nuclei and unbroken cells. […] A portion (20%) of the “total homogenate” fraction was taken for protein quantification and Sia analysis by DMB derivatization and HPLC analysis (as discussed below.) The remainder was centrifuged at 100,000×g for 1 h. The resulting pellet, called the “membrane” fraction, was then resuspended by sonication (15 sec.) in 200 μl of sodium acetate buffer, pH 5.5. The 100,000×g supernatant, called the “soluble” fraction was adjusted to 90% ethanol using absolute ice-cold ethanol, and placed overnight at −20° C. The flocculant precipitate, which represents the “soluble protein” fraction, was washed 3 times with 90% ice-cold ethanol and then resuspended in 200 μl of water. The supernatant fluid representing the cytosolic low molecular weight (LMW) fraction was dried and brought up in 100 μL with water prior to Sia analysis. All the Sias in these fractions were released with mild acid hydrolysis if necessary and then analyzed by HPLC after DMB derivatization. Protein quantification was performed on the total homogenate, membrane and soluble protein fractions by using the BCA protein assay kit from Pierce (Rockford, Ill.) In some experiments, the resulting data obtained for the Sia bound to the membrane fraction and to the soluble proteins were pooled and presented here as a High Molecular Weight (HMW) fraction. Sialic Acid Release, DMB Derivatization and HPLC Analysis—The bound Sias from the total homogenate, membrane and soluble protein fractions were released using 2M acetic acid hydrolysis, 3 h. at 80° C. The released Sias, or free Sias, contained in the soluble LMW fraction were passed through a Microcon® YM-10 filter (Millipore, Bedford, Mass.) prior to DMB derivatization, which was done according to Hara et al., 1989. […] The eluant was monitored by fluorescence. Quantification of Sias—For all HPLC chromatograms, the quantification of Sias was done by comparison with known quantities of DMB derivatized Neu5Gc and Neu5Ac used as standards and then reported in terms of pmoles of Sia. For total homogenate, membrane and cytosolic protein fractions, this number was expressed per mg of protein. Due to minor sample-to-sample variations in amounts and recoveries, the data in the Figures is presented as percent of Neu5Gc over total Sias, rather than as absolute amounts. Endocytosis Inhibition Experiments—Caco-2 or normal fibroblast cells were split and cultured in alpha-MEM media supplemented respectively with 20% or 15% human serum for 4 days before starting the endocytosis drug inhibition experiments in order to deplete any Neu5Gc derived from FCS. Cells were then pre-treated for 2 h. with the specific inhibitors under the same culture conditions. Fresh media containing the same amount of inhibitor and 3 mM of Neu5Gc was then added to the cells, which were incubated for 16 h or 3 days and finally harvested and fractionated as described above.

| SMILES | percent of Neu5Gc incorporation into membrane-bound glycoconjugates [1] [%] | percent of Neu5Gc in membrane-bound glycoconjugates [2] [%] | percent of Neu5Gc in membrane-bound glycoconjugates [3] [%] | Neu5Gc incorporation into membrane-bound glycoconjugates in the presence of inhibitor (percent of total Sia) (Caco-2 cells) [%] |
| --- | --- | --- | --- | --- |
| O=C(CO)N[C@@H]1C(O)O[C@H](CO)[C@@H](O)[C@@H]1O (stereo partly shown) [ManNGc, N-glycolylmannosamine] | 19 | 18 | 17 | – |
| N=C(N)NC(=O)c1nc(Cl)c(N)nc1N [amiloride] | – | – | – | 10 |
